From patent publication US6187906A, “Methods to improve neural outcome” (Aukland Uniservices Limited, priority 1998, dated 2001)

Assays:
[1] = [3H]-GPE quantitative receptor autoradiography in coronal brain sections; type: binding, rat; conditions: 1 hour room temperature, right side neurons absent due to injury, little reaction
Method: A histological experiment to locate GPE binding sites within the rat brain employed quantitative receptor autoradiography to locate [3H]-GPE binding in coronal sections of the brain as previously described in Dragunow et al (1988, Brain Research 462, 252-257). Fresh frozen brain sections were cut on a cryostat and stored at -80 deg C. until use. Sections were then thawed and pre-incubated with 50 mM Tris HCl (pH 7.4) for 10 minutes at room temperature (250 μl per section). Sections were then dried and 250 μl per section of 5×10^5 counts/min^-1 of [3H]-GPE also made up in Tris HCl buffer (50 mM, pH 7.4) was added for 1 hour at room temperature. Sections were then washed two times for one minute each in ice-cold Tris-HCl followed by one rinse for 1 minute in ice-cold distilled water. Sections were then dried overnight at 4 deg C. and apposed to [3H] sensitive film for 2 weeks, and then developed to produce autoradiograms.

[2] = tested on: neurons in the CA1-2 region of the hippocampus; type: in vivo, Wistar rats
Method: The objective of this study was to compare the effects of treatment with GPE to that of a vehicle given 2 hours after an hypoxic-ischemic injury. The dose range of 2 to 200 μg was chosen to span a range of systemic doses that are greater than that required centrally (see experiment 3).
Unilateral hypoxic-ischemic injury was induced in 21 day old, 45±5 g Wistar rats. The rats underwent unilateral carotid ligation under light halothane anaesthesia.
Following one hour recovery they were placed in an incubator at 34 deg C. 85±5% humidity for one hour before the injury. They were subjected to […] inhalation hypoxia (Fi02.8.0%) and then returned to room temperature (22 deg C.) and normoxia. […]
Surviving and dead neurons were discriminated using the thionin/acid fuchsin staining technique (Guan et al J Cereb Blood Flow Metab. 13:609-616 (1993). The results, in which the height of a point is given by the ratio as a percentage of live neurones in the CA1-2 region on the right side to the number on the left side are shown in FIG. 5. Column A is vehicle, column B is 2 μg of GPE, column C is 20 μg of GPE, and column D is 200 μg of GPE. In this figure, the P value (0.031) was calculated by a method using one way ANOVA comparing many groups after Arcsin transformation.

[3] = tested on: dopamine neurons in the pars compacta region of the substantia nigra; test: 6-OHDA lesion, count of TH immunopositive neurons in substantia nigra (Experiments 4 and 5); type: in vivo, Wistar rats
Method: This experiment was blind with respect to the treatment (with GPE or the vehicle) and with respect to the counting of neurons expressing TH (between sections from animals treated with GPE or vehicle).
The objective of this experiment was to determine the effects of administering GPE on the expression of tyrosine hydroxylase (TH) in the presence or absence of CNS injury. […] Specifically, 9 pairs of adult male Wistar rats (280-320 g) were prepared under 3% halothane/O2 anaesthesia. The oxygen free radical producing neurotoxin 6-hydroxydopamine (6-OHDA) which produces degeneration of dopamine neurones (8 μg/2 μl) was injected into the median forebrain bundle using a 30 gauge needle (coordinates: anterior-posterior +4.7 mm, right +1.6 mm, vertical -8.5 mm). A guide cannula was placed on the dura 7.5 mm anterior from stereotaxic zero and 1.5 mm from the midline on the right. The rats were left to recover at room temperature. […]
The total counts of neurons were compared between the GPE and the vehicle treated group. Data were analysed with paired t-test and presented as mean ±sem.
Experiment 5 was performed using a second set of rats (9 pairs) using the same experimental parameters except that only the immunopositive neurons at 2 levels of the substantia nigra were counted.

## NCC(=O)N1CCC[C@H]1C(=O)N[C@@H](CCC(=O)O)C(=O)O [GPE, gly-pro-glu]
[1]
  [3H]-GPE binding in hippocampus: left hippocampus has bound the radioactive material
[2]; 20 μg GPE single intraperitoneal injection 2 hours after injury, 120 hrs, p<0.05
  loss of neurons in the CA1-2 region of the hippocampus: reduced the loss of neurons
[2]; rat, in vivo
  crossing of the blood-brain barrier: can cross the blood-brain barrier
[3]; Experiments 4 and 5
  protection of dopaminergic neurons against 6-OHDA (TH expression in SNc): provided protection
[3]; lesioned (right) side, 3 μg GPE 2 hours after 6-OHDA, 14 days, Experiment 4
  number of TH immunopositive dopamine neurons: increased
